# Values quoted from earlier work in patent publication US7901689B2, “Chimeric peptides as immunogens, antibodies thereto, and methods for immunization using chimeric peptides or antibodies” (Intellect Neurosciences, Inc., priority 1999, dated 2011).
# pEC50: −log10 of the molar value.
# What was measured:
# Aβ production = conditions: Knops et al., 1995, Haass et al., read-out: EC50 for inhibition of Aβ production
# [1] = test system: Aβ-induced toxicity in cultured neurons; conditions: Yankner et al., 1995
# [2] = test system: Alzheimer's disease-like pathology in PDAPP transgenic mice; conditions: Schenk et al. 1999
compound,measurement,setting,value
CO/C1=C\C(C)=C\[C@@H](C)[C@@H](O)[C@@H](C)C/C(C)=C/C=C/[C@H](OC)[C@@H]([C@@H](C)[C@@H](O)[C@H](C)[C@@]2(O)C[C@@H](O)[C@H](C)[C@@H](C(C)C)O2)OC1=O [Bafilomycin],pEC50,Aβ production,~7.30
Nc1c(/N=N/c2ccc(-c3ccc(/N=N/c4cc(S(=O)(=O)O)c5ccccc5c4N)cc3)cc2)cc(S(=O)(=O)O)c2ccccc12 [Congo Red],Aβ-induced toxicity in cultured neurons,[1],completely inhibits
amyloid-β: intact amyloid-β used as immunogen by Schenk et al. (1999),"development of β-amyloid plaque formation, neuritic dystrophy and astragliosis",[2]; immunization of young animals prior to onset of neuropathologies,essentially prevented
same,extent and progression of Alzheimer's disease-type neuropathologies,[2]; treatment in older animals after onset of neuropathologies,reduce the extent and progression
